pEC50, pIC50: −log10 of the molar value. Where two headings read alike, the source gives them in different places.
Tests used:
Format in all cases: cell-based
[1] = system: T47D cells expressing mutant PI3Ka (H1047R); assay: In vitro cell proliferation (CellTiter-Glo, 72 hours), T47D cells; settings: inhibition of proliferation, read-out: Avg T-47D EC50
Procedure: (§1) In Vitro Cell Proliferation: Determination of EC50 Values for Inhibition of Proliferation in T47D Cells Expressing Mutant PI3Ka (H1047R) Mutation and SKBR3 Cells Express WT PI3Ka.
(§2) T47D or SKBR3 cells were trypsinized, resuspended in culture media and seeded onto assay ready plates. T47D culture media consisted of RPMI, 10% FBS and Insulin (0.2 units/mL). SKBR3 culture media consisted of McCoys 5a and 10% FBS. Cells were seeded at a density of 1,500 cells/well and dispensed in 50 uL onto 384 well assay ready plates (Corning, 89089-790). Assay ready plates had previously been stamped with 10-point dilutions of compounds of interest, as well as controls. The Echo655 is used to stamp plates at 40 nL of compound or DMSO. Cells were grown for 72 hours at 37° Celsius and 5% CO2. After 72 hours, cells were equilibrated at room temperature for 15 minutes. 30 uL of CellTiter-Glo reagent is added to the plate, which is then shaken for 30 minutes at temperature at 300-500 rpm. Cells are then read on an Envision plate reader. The percentage of inhibition of proliferation was calculated using the following formula: % Inhibition=100×(LumD−LumSample)/(LumD−LumInh), where D is obtained from cells treated with 0.1% DMSO only; Inh is obtained from cells treated with 10 uM Alpelisib. The effective concentration achieving 50% inhibition of proliferation (EC50) is calculated by fitting the Curve using XWfit (v5.3.1.3), equation 201: Y=Bottom+(Top−Bottom)/(1+10^((Log EC50−X)*HillSlope)).

[2] = system: phosphorylation of AKT (pAKT) in SKBR3 cells express WT PI3Ka; assay: In vitro cell pAKT (Ser473) HTRF, SKBR3 cells
Procedure: (§3) In Vitro Cell pAKT: Determination of IC50 Values for Inhibition of Phosphorylation of AKT (pAKT) in T47D Cells Expressing Mutant PI3Ka (H1047R) Mutation and SKBR3 Cells Express WT PI3Ka.
(§4) T47D or SKBR3 cells were trypsinized, resuspended in culture media and seeded onto assay ready plates. T47D culture media consisted of RPMI, 10% FBS and Insulin (0.2 units/mL). SKBR3 culture media consisted of McCoy's 5a and 10% FBS. Cells were seeded at a density of 5000 cells/well and dispensed in 12.5 uL onto 384 well assay ready plates (Perkin Elmer, 6008238)). Assay ready plates had previously been stamped with 10-point dilutions of compounds of interest, as well as controls. The Echo655 is used to stamp plates at 12.5 nL of compound or DMSO. Cells were grown for 6 hour at 37° Celsius and 5% CO2. After 6 hour, 4 uL of Lysis buffer reagent was added to the plate, which was then centrifuged for 1 minute at 1000 rpm. Then the plate was incubated at room temperature for 30 minutes. After 30 minutes, 4 uL of antibody mix containing Eu Cryptate, d2 Cryptate, and detection buffer, was added to the plate. The plate was centrifuged for 1 minute at 1000 rpm and then incubated overnight at room temperature. The plate was read on an Envision plate reader using the HTRF protocol. The percentage of inhibition of AKT phosphorylation was calculated using the following formula: % Inhibition=100×(pAKTHC−pAKTSample)/(pAKTHC−pAKTLC)), where pAKTHC is obtained from cells treated with 0.1% DMSO only; pAKTLC is obtained from cells treated with 10 uM Alpelisib. The IC50 (concentration achieving 50% inhibition of pAKT) is calculated by fitting the Curve using XWfit (v5.3.1.3), equation 201: Y=Bottom+(Top−Bottom)/(1+10^((Log IC50−X)*HillSlope)).

[3] = system: SKBR3 cells express WT PI3Ka; assay: In vitro cell proliferation (CellTiter-Glo, 72 hours), SKBR3 cells
Procedure: as §1, §2

[4] = system: phosphorylation of AKT (pAKT) in T47D cells expressing mutant PI3Ka (H1047R); assay: In vitro cell pAKT (Ser473) HTRF, T47D cells
Procedure: as §3, §4

[5] = read-out: Avg T-47D IC50, inhibition of pAKT, 6 hour
[6] = Homo sapiens, SK-BR-3, 6 h, inhibition of pAKT
[7] = Homo sapiens, SK-BR-3, 72 h, inhibition of proliferation
[8] = inhibition of pAKT, 6 hour, read-out: Avg T-47D IC50

SMILES	pEC50 [1]	pIC50 ([2]; Homo sapiens, SK-BR-3, inhibition of pAKT, 6 hour)	pEC50 ([3]; Homo sapiens, SK-BR-3, inhibition of proliferation)	pIC50 [4, 5]	pIC50 ([2]; inhibition of pAKT, 6 hour)	pEC50 ([3]; inhibition of proliferation)	pIC50 [2, 6]	pEC50 [3, 7]	pIC50 [4, 8]	pEC50 ([1]; Homo sapiens, T47D, 72 h)
Cc1cc(C(C)Nc2ccccc2C(=O)O)c2nc(N3CC[Si](C)(C)CC3)n(C)c(=O)c2c1 (single isomer, unassigned) [Example 1, 2-((1-(2-(4,4-dimethyl-1,4-azasilinan-1-yl)-3,6-dimethyl-4-oxo-3,4-dihydroquinazolin-8-yl)ethyl)amino)benzoic acid]	5.70 to 6.30	< 4.82	4.82 to 5.70	6.00 to 9.00						
Cc1cc(C(C)Nc2ccccc2C(=O)O)c2nc(N3CC[Si](C)(C)CC3)n(C)c(=O)c2c1 (single isomer, unassigned) [Example 2, 2-((1-(2-(4,4-dimethyl-1,4-azasilinan-1-yl)-3,6-dimethyl-4-oxo-3,4-dihydroquinazolin-8-yl)ethyl)amino)benzoic acid]	4.82 to 5.70			< 4.82	< 4.82	4.82 to 5.70				
Cc1cc(C(C)Nc2ccccc2C(=O)O)c2nc(N3CCCC(C)(C)C3)n(C)c(=O)c2c1 (single isomer, unassigned) [Example 3, 2-((1-(2-(3,3-dimethylpiperidin-1-yl)-3,6-dimethyl-4-oxo-3,4-dihydroquinazolin-8-yl)ethyl)amino)benzoic acid]	5.70 to 6.30						< 4.82	< 4.82	5.30 to 6.00	
Cc1cc(C(C)Nc2ccccc2C(=O)O)c2nc(N3CCCC(C)(C)C3)n(C)c(=O)c2c1 (single isomer, unassigned) [Example 4, 2-((1-(2-(3,3-dimethylpiperidin-1-yl)-3,6-dimethyl-4-oxo-3,4-dihydroquinazolin-8-yl)ethyl)amino)benzoic acid]	4.82 to 5.70				< 4.82	< 4.82			< 4.82	
Cc1cc(C(C)Nc2ccccc2C(=O)O)c2nc(N3CC4(CCCCC4)C3)n(C)c(=O)c2c1 (single isomer, unassigned) [Example 5, 2-((1-(3,6-dimethyl-4-oxo-2-(2-azaspiro[3.5]nonan-2-yl)-3,4-dihydroquinazolin-8-yl)ethyl)amino)benzoic acid]	4.82 to 5.70				< 4.82	< 4.82			5.30 to 6.00	
Cc1cc(C(C)Nc2ccccc2C(=O)O)c2nc(N3CC4(CCCCC4)C3)n(C)c(=O)c2c1 (single isomer, unassigned) [Example 6, 2-((1-(3,6-dimethyl-4-oxo-2-(2-azaspiro[3.5]nonan-2-yl)-3,4-dihydroquinazolin-8-yl)ethyl)amino)benzoic acid]	< 4.82						< 4.82	< 4.82	< 4.82	
COc1ccc2c(c1)CN(c1nc3c(C(C)Nc4ccccc4C(=O)O)cc(C)cc3c(=O)n1C)C2 (single isomer, unassigned) [Example 7, 2-((1-(2-(5-methoxyisoindolin-2-yl)-3,6-dimethyl-4-oxo-3,4-dihydroquinazolin-8-yl)ethyl)amino)benzoic acid]	5.70 to 6.30						< 4.82	< 4.82	6.00 to 9.00	
COc1ccc2c(c1)CN(c1nc3c(C(C)Nc4ccccc4C(=O)O)cc(C)cc3c(=O)n1C)C2 (single isomer, unassigned) [Example 8, 2-((1-(2-(5-methoxyisoindolin-2-yl)-3,6-dimethyl-4-oxo-3,4-dihydroquinazolin-8-yl)ethyl)amino)benzoic acid]	< 4.82				< 4.82	< 4.82			< 4.82	
Cc1cc(C(C)Nc2ccccc2C(=O)O)c2nc(N3Cc4ccc(Cl)cc4C3)n(C)c(=O)c2c1 (single isomer, unassigned) [Example 9, 2-((1-(2-(5-chloroisoindolin-2-yl)-3,6-dimethyl-4-oxo-3,4-dihydroquinazolin-8-yl)ethyl)amino)benzoic acid]	5.70 to 6.30					< 4.82	< 4.82		5.30 to 6.00	
Cc1cc(C(C)Nc2ccccc2C(=O)O)c2nc(N3Cc4ccc(Cl)cc4C3)n(C)c(=O)c2c1 (single isomer, unassigned) [Example 10, 2-((1-(2-(5-chloroisoindolin-2-yl)-3,6-dimethyl-4-oxo-3,4-dihydroquinazolin-8-yl)ethyl)amino)benzoic acid]	4.82 to 5.70				< 4.82	4.82 to 5.70			< 4.82	
Cc1cc(C(C)Nc2ccccc2C(=O)O)c2nc(OCC(C)C)n(C)c(=O)c2c1 (single isomer, unassigned) [Example 11, 2-((1-(2-isobutoxy-3,6-dimethyl-4-oxo-3,4-dihydroquinazolin-8-yl)ethyl)amino)benzoic acid]	5.70 to 6.30						< 4.82	< 4.82	5.30 to 6.00	
Cc1cc(C(C)Nc2ccccc2C(=O)O)c2nc(OCC(C)C)n(C)c(=O)c2c1 (single isomer, unassigned) [Example 12, 2-((1-(2-isobutoxy-3,6-dimethyl-4-oxo-3,4-dihydroquinazolin-8-yl)ethyl)amino)benzoic acid]	4.82 to 5.70				< 4.82	< 4.82			< 4.82	
Cc1cc(C(C)Nc2ccc(Cl)cc2C(=O)O)c2nc(N3Cc4ccc(F)cc4C3)n(C)c(=O)c2c1 (single isomer, unassigned) [Example 13, 5-chloro-2-((1-(2-(5-fluoroisoindolin-2-yl)-3,6-dimethyl-4-oxo-3,4-dihydroquinazolin-8-yl)ethyl)amino)benzoic acid]	4.82 to 5.70					< 4.82	< 4.82		< 4.82	
Cc1cc(C(C)Nc2ccc(Cl)cc2C(=O)O)c2nc(N3Cc4ccc(F)cc4C3)n(C)c(=O)c2c1 (single isomer, unassigned) [Example 14, 5-chloro-2-((1-(2-(5-fluoroisoindolin-2-yl)-3,6-dimethyl-4-oxo-3,4-dihydroquinazolin-8-yl)ethyl)amino)benzoic acid]	6.30 to 9.00				< 4.82	4.82 to 5.70			5.30 to 6.00	
Cc1cc(C(C)Nc2ccc(C#N)cc2C(=O)O)c2nc(N3CCC(C)(C)CC3)n(C)c(=O)c2c1 (single isomer, unassigned) [Example 15, 5-cyano-2-((1-(2-(4,4-dimethylpiperidin-1-yl)-3,6-dimethyl-4-oxo-3,4-dihydroquinazolin-8-yl)ethyl)amino)benzoic acid]								4.82 to 5.70		4.82 to 5.70
Cc1cc(C(C)Nc2ccc(C#N)cc2C(=O)O)c2nc(N3CCC(C)(C)CC3)n(C)c(=O)c2c1 (single isomer, unassigned) [Example 16, 5-cyano-2-((1-(2-(4,4-dimethylpiperidin-1-yl)-3,6-dimethyl-4-oxo-3,4-dihydroquinazolin-8-yl)ethyl)amino)benzoic acid]	4.82 to 5.70					4.82 to 5.70				
Cc1cc(C(C)Nc2ccccc2C(=O)O)c2nc(N3Cc4ccc(C(N)=O)cc4C3)n(C)c(=O)c2c1 (centres unmarked) [Example 19, 2-((1-(2-(5-carbamoylisoindolin-2-yl)-3,6-dimethyl-4-oxo-3,4-dihydroquinazolin-8-yl)ethyl)amino)benzoic acid]								< 4.82		5.70 to 6.30

— US20260242398A1, “BENZOPYRIMIDIN-4(3H)-ONES AS PI3K INHIBITORS” (OnKure, Inc., priority 2022, published 2026)
